Test results reported in US9169270B2, “1-phenyl-substituted heterocyclyl derivatives and their use as prostaglandin D2 receptor modulators” (Actelion Pharmaceuticals Ltd., priority 2012, dated 2015).

Biological target: hCRTH2 receptor (Homo sapiens (Human), UniProt Q9Y5Y4)
Assay: hCRTH2 receptor membranes radioligand (3H-PGD2) displacement assay
Conditions: hCRTH2 membrane fragments, Binding-Buffer with 0.1% BSA
Protocol: Biological Assays: Preparation of hCRTH2 Receptor Membranes and Radioligand Displacement Assay:
First, recombinant HEK293-hCRTH2 cells were detached from culture plates into 5 ml buffer A/plate (Buffer A: 5 mM Tris, 1 mM MgCl2-6H2O pH=7.4) using a rubber policeman. Cells were then transferred into centrifugation tubes and centrifuged for 5 min at 400 g. The cell pellet was resuspended in the same buffer and tubes were frozen at −80° C. Cells were thawed and membrane fragments were generated by homogenization using a polytron homogenizer (30 seconds). The membrane fragments were then centrifuged at 3000 g for 20 minutes and resuspended in buffer C (Buffer C: 75 mM Tris, 25 mM MgCl2, 250 mM Saccharose pH 7.4). Aliquots of membrane fragments were stored at −20° C.
Binding assay was performed in a final assay volume of 250 μl. First, 25 μl of test compound, previously diluted in Binding-Buffer (Binding-Buffer: 50 mM Tris-Base, 100 mM NaCl, 1 mM EDTA, 0.1% BSA (protease free), 0.01% NaN3, 10 mM MnCl2, pH 7.0) was placed into each well. […] Binding assay was started by addition of 100 μl CRTH2 membrane fragments, reaching a final concentration of 20 μg/well. For non-specific binding, PGD2 was added to the reaction mixture to […] final concentration. This assay mix was incubated for 90 minutes at room temperature and then filtered through a GF/C filter 96-well plate which was pre-soaked for 3 hours in 0.5% polyethyleneimine (PEI). The filter-wells were washed three times with ice cold Binding-Buffer. Then, 40 μl of Microscint-40 (Packard) was added to each well and the retained radioactivity quantified in a Topcount (Packard).

hCRTH2 receptor, sequence (Q9Y5Y4 whole entry): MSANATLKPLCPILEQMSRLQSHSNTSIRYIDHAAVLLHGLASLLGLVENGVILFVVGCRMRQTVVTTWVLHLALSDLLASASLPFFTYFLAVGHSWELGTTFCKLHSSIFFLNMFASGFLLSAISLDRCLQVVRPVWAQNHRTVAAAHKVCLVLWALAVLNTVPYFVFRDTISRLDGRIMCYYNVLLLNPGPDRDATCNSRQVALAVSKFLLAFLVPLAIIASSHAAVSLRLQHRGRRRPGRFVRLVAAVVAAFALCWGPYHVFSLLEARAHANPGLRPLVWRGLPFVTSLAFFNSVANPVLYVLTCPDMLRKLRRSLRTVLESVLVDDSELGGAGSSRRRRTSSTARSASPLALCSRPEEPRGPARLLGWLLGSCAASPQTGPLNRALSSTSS

Q: With `O=C(O)COc1ccc(Cl)cc1C1c2scnc2CCN1C(=O)OCc1cc(F)ccc1F` (racemic) [Example 93, (±)-4-(2-Carboxymethoxy-5-chloro-phenyl)-6,7-dihydro-4H-thiazolo[5,4-c]pyridine-5-carboxylic acid 2,5-difluoro-benzyl ester] as the compound, how does the IC50 read?
A: 1.3 nM

Q: How did the IC50 turn out when `O=C(O)COc1ccc(Cl)cc1C1c2scnc2CCN1C(=O)OCc1ccc(Cl)cc1Cl` (racemic) [Example 94, (±)-4-(2-Carboxymethoxy-5-chloro-phenyl)-6,7-dihydro-4H-thiazolo[5,4-c]pyridine-5-carboxylic acid 2,4-dichloro-benzyl ester] was run?
A: 17.1 nM

Q: `O=C(O)COc1ccc(Cl)cc1C1c2scnc2CCN1C(=O)OCc1nc2ccccc2o1` (racemic) [Example 97, (±)-4-(2-Carboxymethoxy-5-chloro-phenyl)-6,7-dihydro-4H-thiazolo[5,4-c]pyridine-5-carboxylic acid benzooxazol-2-ylmethyl ester] was tested. Which IC50 did it give?
A: 5.1 nM

Q: How did the IC50 turn out when `CC(C)COC(=O)N1CCc2ncsc2C1c1cc(Cl)ccc1OCC(=O)O` (racemic) [Example 98, (±)-4-(2-Carboxymethoxy-5-chloro-phenyl)-6,7-dihydro-4H-thiazolo[5,4-c]pyridine-5-carboxylic acid isobutyl ester] was run?
A: 17.8 nM

Q: How did the IC50 turn out when `CCCCOC(=O)N1CCc2ncsc2C1c1cc(Cl)ccc1OCC(=O)O` (racemic) [Example 99, (±)-4-(2-Carboxymethoxy-5-chloro-phenyl)-6,7-dihydro-4H-thiazolo[5,4-c]pyridine-5-carboxylic acid butyl ester] was run?
A: 11.8 nM

Q: How did the IC50 turn out when `Cc1ccc(COC(=O)N2CCc3ncsc3C2c2cc(Cl)ccc2OCC(=O)O)c(C)c1` (racemic) [Example 100, (±)-4-(2-Carboxymethoxy-5-chloro-phenyl)-6,7-dihydro-4H-thiazolo[5,4-c]pyridine-5-carboxylic acid 2,4-dimethyl-benzyl ester] was run?
A: 7.1 nM

Q: With `Cc1cccc(COC(=O)N2CCc3ncsc3C2c2cc(Cl)ccc2OCC(=O)O)c1C` (racemic) [Example 101, (±)-4-(2-Carboxymethoxy-5-chloro-phenyl)-6,7-dihydro-4H-thiazolo[5,4-c]pyridine-5-carboxylic acid 2,3-dimethyl-benzyl ester] as the compound, how does the IC50 read?
A: 6.1 nM

Q: For `N#Cc1ccc(OCC(=O)O)c(C2c3scnc3CCN2C(=O)OCc2ccccc2)c1` (racemic) [Example 106, (±)-4-(2-Carboxymethoxy-5-cyano-phenyl)-6,7-dihydro-4H-thiazolo[5,4-c]pyridine-5-carboxylic acid benzyl ester], which IC50 is on record?
A: 3.4 nM

Q: For `O=C(O)COc1ccc(Cl)cc1C1c2scnc2CCN1C(=O)NCCc1ccccc1` (racemic) [Example 107, (±)-[4-Chloro-2-(5-phenethylcarbamoyl-4,5,6,7-tetrahydro-thiazolo[5,4-c]pyridin-4-yl)-phenoxy]-acetic acid], which IC50 is on record?
A: 5.7 nM

Q: `O=C(O)COc1ccc(Cl)cc1C1c2scnc2CCN1C(=O)NCc1ccccc1Cl` (racemic) [Example 108, (±)-{4-Chloro-2-[5-(2-chloro-benzylcarbamoyl)-4,5,6,7-tetrahydro-thiazolo[5,4-c]pyridin-4-yl]-phenoxy}-acetic acid] was tested. Which IC50 did it give?
A: 8.9 nM

Q: For `CCCc1nc2c(s1)C(c1cc(Cl)ccc1OCC(=O)O)N(C(=O)OCc1ccccc1)CC2` (racemic) [Example 111, (±)-4-(2-Carboxymethoxy-5-chloro-phenyl)-2-propyl-6,7-dihydro-4H-thiazolo[5,4-c]pyridine-5-carboxylic acid benzyl ester], which IC50 is on record?
A: 86.4 nM

Q: With `O=C(O)COc1ccc(Cl)cc1C1c2sc(-c3ccccc3)nc2CCN1C(=O)OCc1ccccc1` (racemic) [Example 112, (±)-4-(2-Carboxymethoxy-5-chloro-phenyl)-2-phenyl-6,7-dihydro-4H-thiazolo[5,4-c]pyridine-5-carboxylic acid benzyl ester] as the compound, how does the IC50 read?
A: 30.9 nM

Q: With `CS(=O)(=O)Nc1nc2c(s1)C(c1cc(Cl)ccc1OCC(=O)O)N(C(=O)OCc1ccccc1)CC2` (racemic) [Example 113, (±)-4-(2-Carboxymethoxy-5-chloro-phenyl)-2-methanesulfonylamino-6,7-dihydro-4H-thiazolo[5,4-c]pyridine-5-carboxylic acid benzyl ester] as the compound, how does the IC50 read?
A: 254 nM

Q: For `O=C(O)COc1ccc(Cl)cc1C1c2sc(NS(=O)(=O)C3CC3)nc2CCN1C(=O)OCc1ccccc1` (racemic) [Example 114, (±)-4-(2-Carboxymethoxy-5-chloro-phenyl)-2-cyclopropanesulfonylamino-6,7-dihydro-4H-thiazolo[5,4-c]pyridine-5-carboxylic acid benzyl ester], which IC50 is on record?
A: 678 nM

Q: For `O=C(O)COc1ccc(Cl)cc1C1c2sc(NC(=O)C3CC3)nc2CCN1C(=O)OCc1ccccc1` (racemic) [Example 115, (±)-4-(2-Carboxymethoxy-5-chloro-phenyl)-2-(cyclopropanecarbonyl-amino)-6,7-dihydro-4H-thiazolo[5,4-c]pyridine-5-carboxylic acid benzyl ester], which IC50 is on record?
A: 491 nM

Q: `CC(=O)Nc1nc2c(s1)C(c1cc(Cl)ccc1OCC(=O)O)N(C(=O)OCc1ccccc1)CC2` (racemic) [Example 116, (±)-2-Acetylamino-4-(2-carboxymethoxy-5-chloro-phenyl)-6,7-dihydro-4H-thiazolo[5,4-c]pyridine-5-carboxylic acid benzyl ester] was tested. Which IC50 did it give?
A: 857 nM

Q: How did the IC50 turn out when `O=C(O)COc1ccc(F)cc1C1c2scnc2CCN1C(=O)OCc1ccccc1` (racemic) [Example 118, (±)-4-(2-Carboxymethoxy-5-fluoro-phenyl)-6,7-dihydro-4H-thiazolo[5,4-c]pyridine-5-carboxylic acid benzyl ester] was run?
A: 8.3 nM

Q: How did the IC50 turn out when `C[C@@H](Oc1ccc(Cl)cc1C1c2scnc2CCN1C(=O)OCc1ccccc1)C(=O)O` (mixture of isomers) [Example 119, (±)-4-[2-((R)-1-Carboxy-ethoxy)-5-chloro-phenyl]-6,7-dihydro-4H-thiazolo[5,4-c]pyridine-5-carboxylic acid benzyl ester] was run?
A: 18.5 nM

Q: With `C[C@H](Oc1ccc(Cl)cc1C1c2scnc2CCN1C(=O)OCc1ccccc1)C(=O)O` (mixture of isomers) [Example 120, (±)-4-[2-((S)-1-Carboxy-ethoxy)-5-chloro-phenyl]-6,7-dihydro-4H-thiazolo[5,4-c]pyridine-5-carboxylic acid benzyl ester] as the compound, how does the IC50 read?
A: 64.4 nM

Q: `O=C(O)COc1ccc(Cl)cc1[C@@H]1c2scnc2CCN1C(=O)[C@@H]1C[C@H]1c1cccc(F)c1` [Example 7, (4-Chloro-2-{(R)-5-[(1R,2R)-2-(3-fluoro-phenyl)-cyclopropanecarbonyl]-4,5,6,7-tetrahydro-thiazolo[5,4-c]pyridin-4-yl}-phenoxy)-acetic acid] was tested. Which IC50 did it give?
A: 2.8 nM

Q: With `O=C(O)COc1ccc(Cl)cc1[C@@H]1c2scnc2CCN1C(=O)[C@@H]1C[C@H]1c1ccc(F)cc1` [Example 8, (4-Chloro-2-{(R)-5-[(1R,2R)-2-(4-fluoro-phenyl)-cyclopropanecarbonyl]-4,5,6,7-tetrahydro-thiazolo[5,4-c]pyridin-4-yl}-phenoxy)-acetic acid] as the compound, how does the IC50 read?
A: 5 nM

Q: `O=C(O)COc1ccc(Cl)cc1[C@@H]1c2scnc2CCN1C(=O)[C@H]1C[C@@H]1c1ccc(F)cc1` [Example 9, (4-Chloro-2-{(R)-5-[(1S,2S)-2-(4-fluoro-phenyl)-cyclopropanecarbonyl]-4,5,6,7-tetrahydro-thiazolo[5,4-c]pyridin-4-yl}-phenoxy)-acetic acid] was tested. Which IC50 did it give?
A: 462 nM

Q: How did the IC50 turn out when `Cc1nc2c(s1)[C@@H](c1cc(Cl)ccc1OCC(=O)O)N(C(=O)[C@@H]1C[C@H]1c1ccccc1)CC2` [Example 10, {4-Chloro-2-[(R)-2-methyl-5-((1R,2R)-2-phenyl-cyclopropanecarbonyl)-4,5,6,7-tetrahydro-thiazolo[5,4-c]pyridin-4-yl]-phenoxy}-acetic acid] was run?
A: 1.5 nM

Q: With `Cc1nc2c(s1)[C@H](c1cc(Cl)ccc1OCC(=O)O)N(C(=O)[C@@H]1C[C@H]1c1ccccc1)CC2` [Example 11, {4-Chloro-2-[(S)-2-methyl-5-((1R,2R)-2-phenyl-cyclopropanecarbonyl)-4,5,6,7-tetrahydro-thiazolo[5,4-c]pyridin-4-yl]-phenoxy}-acetic acid] as the compound, how does the IC50 read?
A: 570 nM

Q: With `Cc1nc2c(s1)[C@H](c1cc(Cl)ccc1OCC(=O)O)N(C(=O)OCc1ccccc1)CC2` [Example 18, (S)-4-(2-Carboxymethoxy-5-chloro-phenyl)-2-methyl-6,7-dihydro-4H-thiazolo[5,4-c]pyridine-5-carboxylic acid benzyl ester] as the compound, how does the IC50 read?
A: 655 nM

Q: With `Cc1nc2c(s1)[C@@H](c1cc(Cl)ccc1OCC(=O)O)N(C(=O)OCc1ccccc1)CC2` [Example 19, (R)-4-(2-Carboxymethoxy-5-chloro-phenyl)-2-methyl-6,7-dihydro-4H-thiazolo[5,4-c]pyridine-5-carboxylic acid benzyl ester] as the compound, how does the IC50 read?
A: 4.71 nM

Q: With `O=C(O)COc1ccc(Cl)cc1[C@@H]1c2scnc2CCN1C(=O)OCc1cc(F)ccc1F` [Example 58, (R)-4-(2-Carboxymethoxy-5-chloro-phenyl)-6,7-dihydro-4H-thiazolo[5,4-c]pyridine-5-carboxylic acid 2,5-difluoro-benzyl ester] as the compound, how does the IC50 read?
A: 1 nM
